Laboratory results taken from publication PMC2682635 (Psychopharmacology, 2009).
Where two headings read alike, the source gives them in different places.

Assays:
[1] = cited from earlier work; for Mean maximum concentration of GHB in plasma: human, 50 mg/kg GHB
[2] = system: baboons; conditions: ref Goodwin et al. 2005, cited from earlier work
[3] = system: humans; conditions: ref Carter et al. 2006; cited from earlier work
[4] = system: baboons; conditions: 4 h after administration; reanalyzed data; ref Goodwin et al. 2005; cited from earlier work
[5] = Pharmacokinetics: GHB in plasma after intragastric GHB, GBL or 1,4-BD; conditions: for Mean maximum concentration of GHB in plasma: baboon, ±SD

For O=C(O)CCCO [GHB, Gamma-hydroxybutyrate], the “Maximum concentration of GHB, range” value ([1]; human subjects, total doses of 3−4.5 g GHB (i.e., 42.8 mg/kg), ref Scharf et al. 1998) is given as 30 to 103 µg/mL, the “Mean maximum concentration of GHB in plasma” value (shortened to “Mean maximum concentration”) ([1]; ref Abanades et al. 2007) is given as 83.1 (+10.7 SD) μg/ml and the “Mean maximum concentration” value ([1]; ref Palatini et al. 1993) is given as 20 µg/mL. The “Duration to complete the fine-motor task” value ([2]; 180−420 mg/kg, 120 min postadministration) was “increased”, the “Duration to complete the fine-motor task” value ([2]; any dose tested, 60 min postadministration) was “did not alter” and the “Time of maximal drug effects postadministration” value [3] was 1−2 h. The “Food-maintained behavior compared to vehicle” value [4] was “not significantly altered”, the “Mean maximum concentration” value ([5]; 32 mg/kg GHB) was 18.46 (±8.66 SD) μg/ml and the “Mean maximum concentration” value ([5]; 100 mg/kg GHB) was 72.2 (±15.73 SD) μg/ml. For the same molecule, the AUC ([5]; monkey, plasma, po, 320 mg/kg) was 4580 µM·h, the Cmax ([5]; monkey, plasma, po, 320 mg/kg) was 598 to 1940 µM and the half-life ([5]; monkey, plasma, po, 320 mg/kg) was 12.2 h. For the same molecule, the Tmax ([5]; plasma, po, 320 mg/kg) was 6 h.
